Measurements as given in patent publication US20110224276A1, “OPTICAL ISOMER OF PHENYLPROPIONIC ACID AND ITS MEDICINAL USE” (priority 2008, published 2011).
Where “and” joins values, the source holds several entries; their conditions need not be identical. Identical values can stand only once.

Tests used:
[1] = molecular target: T1, Cox-2 (Homo sapiens, UniProt P35354); experiment: inhibiting activity to COX-2 (TMPD colorimetric, 590 nm); type: biochemical; details: tested at 300, 100, 30, 10 μmol/L (positive control 100, 30, 10, 3)
T1 construct: purchased Cayman, USA
T1 sequence (P35354 18-604): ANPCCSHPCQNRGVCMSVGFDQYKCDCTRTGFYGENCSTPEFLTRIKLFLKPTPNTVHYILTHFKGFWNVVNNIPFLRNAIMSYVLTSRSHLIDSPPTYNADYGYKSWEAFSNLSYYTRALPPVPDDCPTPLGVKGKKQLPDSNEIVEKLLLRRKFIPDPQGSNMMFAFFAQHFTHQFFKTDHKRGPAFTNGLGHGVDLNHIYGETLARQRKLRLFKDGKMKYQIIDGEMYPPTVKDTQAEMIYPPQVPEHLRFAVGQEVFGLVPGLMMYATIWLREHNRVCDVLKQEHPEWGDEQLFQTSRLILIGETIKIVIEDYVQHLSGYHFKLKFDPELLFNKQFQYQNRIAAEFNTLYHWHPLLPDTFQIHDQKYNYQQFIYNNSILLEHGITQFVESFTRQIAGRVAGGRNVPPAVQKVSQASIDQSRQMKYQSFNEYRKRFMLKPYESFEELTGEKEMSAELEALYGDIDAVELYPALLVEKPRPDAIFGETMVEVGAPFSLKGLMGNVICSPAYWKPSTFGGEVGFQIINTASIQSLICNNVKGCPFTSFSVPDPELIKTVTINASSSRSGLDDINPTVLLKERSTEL
Experimental: (§1) 2.5.1 The Inhibiting Activity to COX-1/COX-2
(§2) (1) In 220 ul of reaction system, mixed buffer (1×), heme, COX-1/COX-2, and the compound to be tested, are sequentially added, and are incubated for 5 minutes at 25° C.;
(§3) (2) Adding chromogenic substrate (TMPD) and arachidonic acid;
(§4) (3) Carefully shaking the plate for several seconds, then incubating for 15 minutes at 25° C.;
(§5) (4) Detecting absorption value at 590 nm.
(§6) Fitting data of concentration (μmol/L) and corresponding inhibition rate (%) via Microsoft EXCEL software to get a trendline, so as to obtain the half-effective inhibiting concentration (IC50) of each tested enzyme.

[2] = molecular target: T2, Cox-1 (Ovis aries, UniProt P05979); experiment: inhibiting activity to COX-1 (TMPD colorimetric, 590 nm); type: biochemical; details: tested at 300, 100, 30, 10 μmol/L (positive control 100, 30, 10, 3)
T2 construct: purchased Cayman, USA
T2 sequence (P05979 25-600): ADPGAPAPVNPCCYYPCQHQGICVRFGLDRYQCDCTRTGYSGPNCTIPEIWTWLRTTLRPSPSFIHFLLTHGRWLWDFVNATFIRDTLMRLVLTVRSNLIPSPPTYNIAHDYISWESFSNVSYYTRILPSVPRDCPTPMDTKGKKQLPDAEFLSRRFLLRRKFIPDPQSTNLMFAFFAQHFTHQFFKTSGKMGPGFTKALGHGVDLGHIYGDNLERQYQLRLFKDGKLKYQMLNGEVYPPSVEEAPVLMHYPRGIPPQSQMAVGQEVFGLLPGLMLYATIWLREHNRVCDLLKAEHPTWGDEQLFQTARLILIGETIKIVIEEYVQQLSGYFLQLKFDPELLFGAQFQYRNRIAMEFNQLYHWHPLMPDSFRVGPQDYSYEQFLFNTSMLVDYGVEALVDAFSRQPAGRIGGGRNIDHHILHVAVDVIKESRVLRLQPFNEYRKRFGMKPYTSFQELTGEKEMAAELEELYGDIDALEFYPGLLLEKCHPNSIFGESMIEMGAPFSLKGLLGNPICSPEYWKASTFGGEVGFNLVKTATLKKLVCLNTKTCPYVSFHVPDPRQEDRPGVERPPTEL
Experimental: as §1, §2, §3, §4, §5, §6

[3] = tested on: SD rats; experiment: long-term toxicity test in SD rats, thirteen-week consecutive intragastric administration and four-week convalescence; details: rats
Experimental: 2. […] The tested samples are formulated into suspensions by milling with 0.5% CMC—Na; intragastric administration (10 ml/kg) every day for consecutive 13 weeks; on each day, after administration, the general conditions of the animals are observed, and weight and amount of ingestion are determined once every week. In 24 hours after the last administration, half of rats in each tested group are fasted overnight, blood samples are withdrawn via femoral arteries, and the rats are dissected, and the indexes of blood cytology and biochemics, gloss anatomy and histopathological examination are preformed. The administration to remaining half rats is stopped, and the convalescence is observed; general conditions are observed and weight and amount of ingestion are determined once every week. After 4 weeks, the observation is complete, and the half of rats in each tested group are fasted overnight, blood samples are withdrawn via femoral arteries, and the rats are dissected, and the indexes of blood cytology and biochemics, gloss anatomy and histopathological examination are preformed.

[4] = tested on: SD rats; experiment: toxicity test in SD rats, four-week consecutive intragastric administration; details: rats
Experimental: 2. […] The tested samples are formulated into suspensions by milling with 0.5% CMC—Na; intragastric administration every day (10 ml/kg) for consecutive 4 weeks; on each day, after administration, the general conditions of the animals are observed, and weight and amount of ingestion are determined once every week. In 24 hours after the last administration, the rats are fasted overnight, blood samples are withdrawn via femoral arteries, and the rats are dissected, and the indexes of blood cytology and biochemics, gloss anatomy and histopathological examination are preformed.

[5] = tested on: ICR mice; experiment: in vivo
From the text: (§7) Each tested group includes 5 dose-groups during the tests as follows:
Intraperitoneal injection (ip)
(3) Observed periods: 14 days.

[6] = molecular target: T3, 5-Lox (human recombinant) (Homo sapiens, UniProt P09917); experiment: inhibiting activity to 5-lipoxygenase (500 nm); type: biochemical; details: tested at 300, 100, 30, 10 μmol/L (positive control 100, 30, 10, 3)
T3 construct: purchased Cayman, USA
T3 sequence (P09917 1-674): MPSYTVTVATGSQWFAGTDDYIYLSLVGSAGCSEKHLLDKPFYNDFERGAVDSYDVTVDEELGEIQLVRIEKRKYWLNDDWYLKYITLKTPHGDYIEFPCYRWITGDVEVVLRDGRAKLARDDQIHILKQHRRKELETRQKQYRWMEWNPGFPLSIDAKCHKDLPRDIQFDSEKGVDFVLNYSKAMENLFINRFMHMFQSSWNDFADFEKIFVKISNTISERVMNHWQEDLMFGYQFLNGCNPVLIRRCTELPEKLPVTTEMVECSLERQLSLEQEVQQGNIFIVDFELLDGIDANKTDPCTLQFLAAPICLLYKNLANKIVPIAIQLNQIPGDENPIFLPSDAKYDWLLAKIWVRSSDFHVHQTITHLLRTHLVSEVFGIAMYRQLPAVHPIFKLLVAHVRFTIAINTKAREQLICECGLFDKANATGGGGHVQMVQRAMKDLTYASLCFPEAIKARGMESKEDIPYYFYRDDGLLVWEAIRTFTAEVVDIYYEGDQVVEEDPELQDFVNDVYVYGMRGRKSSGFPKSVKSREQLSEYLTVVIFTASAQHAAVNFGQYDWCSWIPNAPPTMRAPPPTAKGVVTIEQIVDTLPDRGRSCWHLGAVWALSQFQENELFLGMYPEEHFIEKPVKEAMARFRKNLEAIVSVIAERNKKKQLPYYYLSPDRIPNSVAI
From the text: as §6

[7] = tested on: ICR mice; experiment: in vivo; remark: listed apart in the source
From the text: as §7
Intragastric administration (ig)
(3) Observed periods: 14 days

R-10,11-dihydro-alpha-methyl-10-oxo-dibenzo[b,f]tiazem-2-acetic acid:S-10,11-dihydro-alpha-methyl-10-oxo-dibenzo[b,f]tiazem-2-acetic acid (6:1) [S:R = 1:6]
IC50 [1]: 5.2 µM
IC50 [2]: 70.3 µM
gastrointestinal tract toxicity ([3]; 13-week ig, S 50, 25, RS 50, R 400, 200, 100, R:S=6:1 200, 100, 50 mg/kg): not produce significant gastrointestinal tract toxicity
nontoxic dosage ([3]; 13-week consecutive intragastric administration): 100 mg/kg
gastrointestinal tract toxicity ([4]; four-week ig, S 80, 40, RS 80, R 480, 240, 120, R:S=6:1 320, 160, 80 mg/kg): do not produce significant gastrointestinal tract toxicity
nontoxic dosage ([4]; four-week consecutive intragastric administration): 160 mg/kg
Com. Vs. S (multiple) ([5]; LD50 ip compared with S): 2.5 multiple
LD50 ([5]; mice, ip, single dose, 14 days observation, Bliss method): 497.6 ± 28.6 mg/kg
IC50 [6]: 18.6 µM
Com. Vs. S (multiple) ([7]; LD50 ig compared with S): 4.2 multiple
LD50 ([7]; mice, ig, single dose, 14 days observation, Bliss method): 1138.5 ± 80.3 mg/kg and 1138.5 mg/kg
